In patent US12275733B2, “Substituted pyrido[3,4-b]indoles for the treatment of cartilage disorders” (Sanofi, priority 2016, dated 2025) one finds EC50 and Emax data, which are given here for 13 compounds.

The test has as its system ATDC5 cells. Briefly: Chondrogenesis activity assay in ATDC5 cells (collagen type II induction, immunofluorescence). Format: cell-based, mouse. The following applies: Mus musculus; for EC50: collagen type II induction in ATDC5 cells, concentration reaching 50% of maximum induction; for Emax: maximum percent induction of collagen type II relative to internal reference compound at 10 μM, ATDC5 cells. As to the method:
A) Chondrogenesis Activity Assay in ATDC5 Cells
The chondrogenic potential of the compounds of the invention was determined using clonal mouse chondrogenic ATDC5 cells (T. Atsumi et al., Cell Differ. Dev. 1990, 30, 109-116). ATDC5 cells are derived from mouse embryonic AT805 teratocarcinoma cells and are used frequently to study the multistep chondrogenic differentiation process from precursor cells into chondrocytes (C. Shukunami et al., Exp. Cell Res. 1998, 241, 1-11; H. Aklyami et al., J. Bone Miner. Res. 1996, 11, 22-28; H. Akiyami et al., Biochem. Biophys. Res. Commun. 1997, 235, 142-147; C. Shukunami et al., J. Cell Biol. 1996, 133, 457-468; C. Shukunami et al., J. Bone Miner. Res. 1997, 12, 1174-1188). Undifferentiated ATDC5 cells grow in vitro until confluence, showing a fibroblast-like morphology. In the presence of insulin, cells undergo transient condensation and form numerous nodular structures (cartilage nodules). The cartilagenous nature of these nodules was shown by Alcian Blue staining as evidence of the production of proteoglycan (aggrecan) and collagen type II expression (by expression analysis), both molecular markers of chondrocytes (C. Shukunami et al., J. Cell Biol. 1996, 133, 457-468).
Chondrogenic differentiation of ATDC5 cells into chondrocytes by the compounds of the invention was determined by measuring the induction of type II collagen protein as a marker of chondrocytes, a structural component of the extracellular matrix which constitutes more than 80% of cartilage mass (D. R. Eyre, Clin. Orthop. Relat. Res. 2004, 427 Suppl, S118-S122). ATDC5 cells were obtained from RIKEN and cultured as monolayer in basal culture medium (Dulbecco's Modified Eagle Medium/Nutrient Mixture F-12 (DMEM/F12, Invitrogen, #31331-093) supplemented with 10 μg/ml Transferrin (Roche, #10652 202001), 3×10E−8 M sodium seienite (Sigma, #S-5261) and 5% Fetal Calf Serum (FCS Gold, PAA, #A15-251)), at 37° C., and 5% CO2 in plastic flasks of 75 cm^2 or 300 cm^2 subconfluently for propagation. ATDC5 cells were harvested and resuspended in differentiation culture medium that consisted of basal culture medium complemented with 10 μg/ml insulin (Sigma, #19278), to initiate chondrogenic differentiation. For studying the effect of test compounds, the ATDC5 cells were plated in 96-well plates (3.0×10E4 cells per well in 200 μl of differentiation culture medium). Test compounds dissolved in DMSO were added to yield increasing compound concentrations, typically from 40 nM to 10 μM, and a final DMSO concentration of 0.1%. On each 96-well plate, control wells containing no test compound but the same concentration of DMSO, i.e. untreated cells, were included and used as reference for the determination of the effect of the test compounds on the cells, and wells containing an internal reference compound at a concentration of 10 μM were included and used as positive control and for standardizing the results. Cells in the wells were incubated for 4 days at 37° C., and 5% CO2, followed by quantification of intracellular collagen type II.
Quantification of collagen type II in the ATDC5-cells was done by immunofluorescence staining of collagen type II, and fluorescence intensity was measured using a cellular high content imaging system (ImageXpress, Molecular Device). For immunofluorescence staining of intracellular collagen, medium was removed after compound incubation and cells were fixed with 200 μl/well methanol/water (95%/5%). Cells were permeabilized in 200 μl/well phosphate-buffered saline (PBS) containing 0.2% Triton X100 for 15 min and, after removal of the solution, blocked for 30 min with 200 μl/well PBS/0.2% Triton X100 containing 1% bovine serum albumin (BSA) to avoid unspecific binding. After the blocking step, the solution was removed and collagen type II staining solution was added. […]

What is called EC50 is the concentration giving half of the maximal effect. Lower therefore signals a more potent agent. The term Emax denotes the size of the effect at its maximum, as opposed to the concentration needed. As for `Cc1nccc2c1[nH]c1c(-c3ccc(OCCn4cc(Br)cn4)cc3)cc(Cl)cc12` [Example 42, 8-(4-[2-(4-Bromo-pyrazol-1-yl)-ethoxy]-phenyl)-6-chloro-1-methyl-9H-pyrido[3,4-b]indole], the EC50 was 510 nM and the maximum response (Emax) lay within 50 to 80%.
For the compound `Cc1nc(Br)cc2c1[nH]c1c(-c3ccc(OCCn4cc(Br)cn4)cc3)cc(Cl)cc12` [Example 43, 3-Bromo-8-(4-[2-(4-bromo-pyrazol-1-yl)-ethoxy]-phenyl)-6-chloro-1-methyl-9H-pyrido[3,4-b]indole], the concentration for a half-maximal effect (EC50) was over 6600 nM and the Emax was under 20%.
In turn, `CCn1c2c(-c3cnn(CCO)c3)cc(Cl)cc2c2ccnc(C)c21` [Example 44, 2-[4-(6-Chloro-9-ethyl-1-methyl-9H-pyrido[3,4-b]indol-8-yl)-pyrazol-1-yl]-ethanol] displayed an EC50 of 670 nM and an Emax of over 80%.
Take `Cc1nccc2c3cc(Cl)cc(-c4ccc(C#N)nc4)c3n(CC3CC3)c12` [Example 47, 5-(6-Chloro-9-cyclopropylmethyl-1-methyl-9H-pyrido[3,4-b]indol-8-yl)-pyridine-2-carbonitrile]: the concentration for a half-maximal effect (EC50) was over 10000 nM and the maximal response (Emax) is 20 to 50%.
For `Cc1cc(-c2cc(Cl)cc3c4ccnc(C)c4n(CC4CC4)c23)cnc1C#N` [Example 48, 5-(6-Chloro-9-cyclopropylmethyl-1-methyl-9H-pyrido[3,4-b]indol-8-yl)-3-methyl-pyridine-2-carbonitrile], in that order: 41 nM and under 20%.
With `Cc1nccc2c3cc(Cl)cc(-c4cnc5c(c4)OCCN5C)c3n(CC3CC3)c12` [Example 49, 6-Chloro-9-cyclopropymethyl-1-methyl-8-(4-methyl-3,4-dihydro-2H-pyrido[3,2-b][1,4]oxazin-7-yl)-9H-pyrido[3,4-b]indole], the midpoint of the response, the EC50, lay at 41 nM and the Emax is under 20%.
Taken in the same sequence, the figures for `Cc1nccc2c3cc(Cl)cc(-c4ccc(N5CCCC5)nc4)c3n(CC3CC3)c12` [Example 50, 6-Chloro-9-cyclopropylmethyl-1-methyl-8-(6-pyrrolidin-1-ylpyridin-3-yl)-9H-pyrido[3,4-b]indole] were 130 nM and under 20%.
Taken in the same sequence, the figures for `Cc1nccc2c3cc(Cl)cc(-c4ccc(N5CCN(C)CC5)nc4)c3n(CC3CC3)c12` [Example 51, 6-Chloro-9-cyclopropylmethyl-1-methyl-8-[6-(4-methyl-piperazin-1-yl)-pyridin-3-yl]-pyrido[3,4-b]indole] were over 10000 nM and under 20%.
Taken in the same sequence, the figures for `COc1ccc(-c2cc(Cl)cc3c4ccncc4n(CC4(C)COC4)c23)cc1` [Example 52, 6-Chloro-8-(4-methoxy-phenyl)-9-(3-methyl-oxetan-3-ylmethyl)-9H-pyrido[3,4-b]indole] were 1200 nM and 50 to 80%.
Compound `Nc1ccc(-c2cc(Cl)cc3c4ccncc4n(CC4CC4)c23)c(Cl)n1` [Example 53, 6-Chloro-5-(6-chloro-9-cyclopropylmethyl-9H-pyrido[3,4-b]indol-8-yl)-pyridin-2-ylamine] had an EC50 of 2100 nM and an Emax of 50 to 80%.
`CCn1c2cnccc2c2cc(Cl)cc(-c3ccc(Cl)nc3)c21` [Example 54, 6-Chloro-8-(6-chloro-pyridin-3-yl)-9-ethyl-9H-pyrido[3,4-b]indole] gave a concentration for a half-maximal effect (EC50) of 1100 nM and an Emax of 20 to 50%.
In turn, `CCn1c2cnccc2c2cc(Cl)cc(-c3cccnc3Cl)c21` [Example 56, 6-Chloro-8-(2-chloro-pyridin-3-yl)-9-ethyl-9H-pyrido[3,4-b]indole] showed an EC50 of 460 nM and an Emax of 20 to 50%.
Taken in the same sequence, the figures for `FC(F)(F)Cn1c2cnccc2c2cc(Cl)cc(-c3cccnc3)c21` [Example 57, 6-Chloro-8-pyridin-3-yl-9-(2,2,2-trifluoro-ethyl)-9H-pyrido[3,4-b]indole] were 1600 nM and under 20%.
